From US20180008717A1, “PHARMACEUTICAL COMPOSITION WITH ANALGESIC AND ANTI-INFLAMMATORY ACTIVITY” (priority 2016, published 2018)
Counter-ions that a name gives are not always drawn.

Legend:
Assay type in all cases: in vivo
mice [1] = test: Hot plate test (topical ointment); settings: hot plate 55 degrees Celsius, 2 percent w/w ointment topically 5 min before, cut-off 60 seconds, mean±SEM
Procedure: (§1) Example 3 illustrates the analgesic activity of the esters evaluated using models of providing thermal stimuli (hot plate) and chemical stimuli (formalin, capsaicin and allyl isothiocyanate) to the subjects i.e., mice.
TEST 1: Hot plate test: The hot plate test (HPT) is often used for investigation of a noxious stimulus (heat) in models of acute pain. Classically, the latency of the animal's response to the stimulus is recorded as the dependent variable.
All compounds, including BZC, were applied topically in an ointment (2 percent weight by weight based on the total weight of formulation) prepared according to the procedure described in Example 1. The ointments were applied both to the palmar and plantar surfaces of the paws of the mice by gently rubbing 5 min before analgesic activity evaluation. A corresponding amount of the ointment base were similarly applied for mice used as control animals. The mice were placed on a hot plate maintained at 55 degrees Celsius, one at a time. In this experiment, latency to respond to the heat stimulus was determined by the amount of time (in seconds) it took for a mouse to lick one of its paws. Cut-off time was fixed at 60 seconds to minimize the tissue damage that occurs during prolonged contact with heated surface. All values are expressed as the mean±standard errors of the mean (SEM) in all the tables.

mice [2] = test: Capsaicin test (topical ointment); settings: capsaicin 6 micrograms/paw s.c., 2 percent w/w ointment topically 5 min before, observed 5 minutes, mean±SEM
Excerpt: as §1
TEST 2: Capsaicin test: Capsaicin (8-methyl-N-vanillyl-6-nonenamide), the pungent substance obtained from hot red pepper, is used to evaluate analgesic activity on mice, for compounds synthesized herein.
All compounds, including BZC, were applied topically as an ointment (2 percent weight by weight based on the total weight of formulation) prepared according to the procedure described in Example 2. The ointments were applied to the affected paws' surface by gently rubbing 5 min before analgesic activity evaluation. A corresponding amount of the ointment base were similarly applied for mice used as control animals. To evaluate analgesic activity 20 microliter of capsaicin solution in 1,2-propylene glycol (6 micrograms/paw) was injected subcutaneously under the skin of the dorsal surface of the hindpaw. Animals were observed individually for 5 minutes after capsaicin administration. The amount of time that mice spent licking the injected paw was recorded and considered as an index of pain.

mice [3] = test: Formalin test, early phase (topical ointment); settings: 20 microliter 2 percent formalin s.c., 2 percent w/w ointment topically 5 minutes before, 0 to 5 min (early phase), mean±SEM
Procedure: as §1
TEST 3: Formalin test: The formalin test was used to determine the potential analgesic effects of compounds for states of persistent pain in which tissue damage occurs. The nociceptive response produced by formalin is biphasic: an early response (0 to 5 min after injection) and a late response (20 to 30 minutes after injection). These two phases can be distinguished pharmacologically: phase 1 is supposed to represent a direct chemical stimulation of nociceptors while phase 2 is thought to involve inflammation. Aiming at assessment precisely response caused by a burst of activity from pain fibers we measured the licking time as an indicator of nociception only during the first (early) phase. All compounds, including BZC, were applied topically in an ointment (2 percent weight by weight based on the total weight of formulation) prepared according to the procedure described in Example 2. The ointments were applied to the affected paws' surface by gently rubbing 5 minutes before analgesic activity evaluation. A corresponding amount of the ointment base were similarly applied for mice used as control animals. After that, 20 microliter of a 2 percent formalin solution in 0.9 percent NaCl (w/w) was injected subcutaneously into the dorsal surface of the hindpaw. The animal then was placed in an individual plexiglass cage. The time spent by the animal in licking the injected paw was measured from 0 to 5 min (early phase) after formalin administration and was considered as an indicator of pain response.

mice [4] = test: Allyl isothiocyanate (AITC, TRPA1 agonist) test (topical ointment); settings: 20 microliters 0.5 percent AITC s.c., 2 percent w/w ointment topically 5 min before, observed 10 minutes, mean±SEM
Procedure: as §1
TEST 4: Allyl isothiocyanate test: The analgesic activity was evaluated by a model of chemical stimulus with the use of TRPA1 agonist—allyl isothiocyanate (AITC).
20 Microliters of 0.5 percent (w/w in 1,2-propylene glycol) AITC solution was injected subcutaneously under the skin of the dorsal surface of the right hindpaw. All compounds, including BZC, were applied topically in an ointment (2 percent weight by weight based on the total weight of formulation) prepared according to the procedure described in Example 2. The ointments were applied to the affected paws' surface by gently rubbing 5 min before analgesic activity evaluation. A corresponding amount of the ointment base were similarly applied for mice used as control animals. AITC dose was selected based on our preliminary trials and from literature citations. Animals were observed individually for 10 minutes after AITC administration. The amount of time that mice spent licking the injected paw (reaction time in seconds) was recorded and considered as an index of pain.

rat paw = test: AITC-induced rat paw edema assay; settings: for ability to decrease the AITC-induced inflammatory state compared with ibuprofen: 2 percent w/w ointment topically; for time of inflammation maximum following AITC injection: 2 percent w/w ointment, vehicle edema maximum at 3 hours; for level of AITC-induced edema (volume of affected paw): AITC 100 microgram per paw, 2 percent w/w ointment topically 30 minutes before and at each time point, percentage of the control
Procedure: One-way analysis of variance (ANOVA) followed by Tukey's post hoc comparison.
The anti-inflammatory effect was determined using an AITC-induced rat paw edema assay. […] The ointments were additionally applied by gently rubbing on the affected paw at each time point.

Structure (SMILES)	Reaction time (latency to lick a paw) (mice [1])	Reaction time (latency to lick a paw) (mice [1]; listed as BZC)	Licking time (mice [2])	Licking time (mice [3])	Licking time (mice [4])	Reaction time (latency to lick a paw) (mice [1]; listed as COMPOUND 1, hydrochloride)	Reaction time (latency to lick a paw) (mice [1]; listed as compound 1, hydrochloride)	ability to decrease the AITC-induced inflammatory state compared with ibuprofen (rat paw)	time of inflammation maximum following AITC injection (rat paw)	level of AITC-induced edema (volume of affected paw) (rat paw)	Reaction time (latency to lick a paw) (mice [1]; listed as COMPOUND 2, hydrochloride)	Reaction time (latency to lick a paw) (mice [1]; listed as compound 2, hydrochloride)	Reaction time (latency to lick a paw) (mice [1]; listed as COMPOUND 3, hydrochloride)	Reaction time (latency to lick a paw) (mice [1]; listed as compound 3, hydrochloride)	Reaction time (latency to lick a paw) (mice [1]; listed as COMPOUND 4, hydrochloride)	Reaction time (latency to lick a paw) (mice [1]; listed as compound 4, hydrochloride)
CCOC(=O)c1ccc(N)cc1 [Benzocaine, benzocaine, reference compound]	18.3 ± 0.9 s	about 18.3 sec	28.7 ± 6.6 s	36.3 ± 2.4 s	48.0 ± 2.0 s											
CC(C)[C@@H]1CC[C@@H](C)C[C@H]1OC(=O)CCCN [Compound 1, (1R,2S,5R)-2-isopropyl-5-methylcyclohexyl-4-aminobutyrate hydrochloride]			4.3 ± 0.9 s	30.3 ± 7.4 s	2.7 ± 0.3 s	30.2 ± 2.6 s	about 30.2 sec	exceed reference drug ibuprofen	about 1.5 hours	136%						
Cc1ccc(C(C)C)c(OC(=O)CCCN)c1.Cl [Compound 2, 2-isopropyl-5-methylphenyl 4-aminobutyrate hydrochloride]			19.7 ± 2.6 s	52.2 ± 6.6 s	20.3 ± 5.8 s			exceed reference drug ibuprofen	about 1.5 hours	112%	21.3 ± 0.9 s	about 21.3 sec				
Cc1ccc(C(C)C)cc1OC(=O)CCCN.Cl [Compound 3, 5-isopropyl-2-methylphenyl 4-aminobutyrate hydrochloride]			12.0 ± 1.2 s	31.1 ± 8.3 s	22.8 ± 4.3 s			relatively comparable effects with ibuprofen	about 1.5 hours				19.3 ± 3.8 s	about 19.3 sec		
COc1ccccc1OC(=O)CCCN.Cl [Compound 4, 2-methoxylphenyl 4-aminobutyrate hydrochloride]			24.3 ± 3.3 s	47.6 ± 9.8 s	25.3 ± 1.5 s			relatively comparable effects with ibuprofen	about 1.5 hours						16.5 ± 3.7 s	about 16.5 sec
CC(C)Cc1ccc(C(C)C(=O)O)cc1 (stereo not drawn) [ibuprofen, reference compound]									about 1.5 hours							
